Assay results: patent US20190302102A1, “COMBINATION THERAPIES FOR TREATING BIPOLAR DISORDER, AND METHODS FOR USING THE SAME” (PsychNostics, LLC, priority 2016, published 2019)

Legend:
[1] = blood plasma; Freudenreich et al. 2009; cited from earlier work
BD patient = assay: Clinical case observation of tolerability (Example 4); assay type: in vivo, human; settings: very low dosage, given for anxiety; person with BD
Text: At the time of their first blood draw, they reported having been off of their medications for BD for one month, but had not become clinically symptomatic, and tested in the BD range (“(Before)” of FIG. 4). When retested, they had been taking lithium, quetiapine, and mirtazapine for some time and had been back at work. […] Subsequently, they reported anxiety, occurring while they continued taking lithium, quetiapine, and mirtazapine. They thought they might be experiencing a return of bipolar symptomatology, but this was determined to possibly be situational instead. They had some awareness of issues with their fiancé and this awareness was “bolstered” by the notion that their MPR™ test had been in the normal range on their medication regimen not so many months before. […] They wanted a medication to help their through what they were experiencing, but could not be given benzodiazepines because of a history of difficulty with alcohol. Very low dosage perphenazine was given, in keeping with its old indication for neurotic anxiety.

BD patients = settings: cited from earlier work
[2] = system: whole blood cells from BD patients; assay: MPR™ (Membrane Potential Ratio) test, agents added to the test buffer in vitro; assay type: cell-based, human; settings: 1 mM Li alone in EtOH test buffer, whole blood of BD patients
Procedure: The present inventor developed a ratiometric assay to measure the ratio of the membrane potential called Membrane Potential Ratio (MPR™), using a reference buffer and a test buffer. […] The reference buffer may contain NaCl, CaCl2 and glucose at physiological concentrations. The buffering agent HEPES was also added to the buffer to maintain the pH. […] The test buffer may contain K^+ or no K^+. The membrane potentials were measured in both the buffers and the ratio of the MP in the test buffer to the MP in the reference buffer was designated the “Membrane Potential Ratio” (MPR™).
The membrane potentials of whole blood cells can be measured using two different buffers in a plate reader. The mean MPR™ value is the ratio between the membrane potential of a patient's cells in the test buffer as the numerator and that in the reference buffer as the denominator (for example, determined by statistical analysis of multiple measurements, using the ANOVA and the multiple statistical regression analysis).
As mentioned herein, MPR™ is the ratio between the membrane potential (MP) in the test buffer and that in the reference buffer. In these experiments, the reference buffer contained NaCl, CaCl2, glucose and HEPES, whereas the test buffer contained ethyl alcohol (EtOH) in addition to NaCl, CaCl2, glucose and HEPES. Lithium, inositol and carbachol were added to the test buffer in these experiments.
Whole blood samples were obtained from BD patients, and a portion from each blood sample was suspended in the test buffer for 20 minutes, and a portion from each blood sample was suspended in the reference buffer for 20 minutes. After this incubation, the samples were centrifuged for five minutes, drained, then re-suspended in their respective buffer (test or reference buffer). These samples were then distributed in 96 well plates, and tested in a plate reader (FLx 800 manufactured by BioTek).

CN1CCN(C2=Nc3cc(Cl)ccc3Nc3ccccc32)CC1 [clozapine]
presently used therapeutic levels [1]: 200 to 1000 ng/mL

OCCN1CCN(CCCN2c3ccccc3Sc3ccc(Cl)cc32)CC1 [perphenazine]
Side effect leading to discontinuation (BD patient): blurred vision

[Li] [Li, lithium]
side effects at the therapeutic level (BD patients; at therapeutic concentration of 1.2 mM): nausea, diarrhea, dizziness, muscle weakness, fatigue, and a dazed feeling
therapeutic level (BD patients; lithium level in BD therapy): around 1.2 mM
toxic level (BD patients; lithium level in BD therapy): about 2 mM
MPR™ value ([2]; Example 1, FIG. 1): 0.814
MPR™ value ([2]; Example 2, FIG. 2): 0.757
MPR™ value ([2]; Example 3, FIG. 3): 0.780
